In PubChem BioAssay (NCI) one finds GI50 and TGI data, which are given here for seven compounds.

Among the test systems are KM12 colon; M14 melanoma; NCI-H460 lung; NCI-H522 lung; NCI/ADR-RES ovarian; RXF 393 renal; SF-295 CNS; SK-MEL-28 melanoma; SW-620 colon; U251 CNS.
Test in all cases: NCI tumour cell line growth inhibition, 48 h

The structures appear in SMILES notation.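 Values below derive from 48-hour exposures of cells grown in 96-well plates, with endpoints linearly interpolated between the two concentrations bracketing the appropriate inhibition level. The concentration for 50% growth inhibition is given as GI50. TGI: total growth inhibition.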

Turning to `COC(=O)C1CC2(c3ccc(C)cc3)C(c3ccc(C)cc3)=C(c3ccc(C)cc3)C1(c1ccc(C)cc1)S2=O` (configuration not stated), the GI50 in the test on KM12 colon is > 100 µM; in the test on M14 melanoma, > 100 µM; with NCI-H460 lung it was > 100 µM; in the test on NCI-H522 lung, 96.3 µM; in the test with NCI/ADR-RES ovarian, 85.5 µM; in the test on RXF 393 renal, 90.2 µM. Further, the GI50 with SF-295 CNS was 57.6 µM; with SK-MEL-28 melanoma, > 100 µM; in the test on SW-620 colon, > 100 µM; with U251 CNS, 65.1 µM. Further, the TGI in the test with KM12 colon, in the test on M14 melanoma, with NCI-H460 lung, in the test with NCI-H522 lung, in the test with NCI/ADR-RES ovarian and in the test with RXF 393 renal was > 100 µM each time. Also, the TGI in the test on SF-295 CNS, with SK-MEL-28 melanoma, in the test on SW-620 colon and in the test with U251 CNS was > 100 µM each time.
As for `Nc1c(C(=O)Nc2cccc3ccccc23)sc2nc3c(cc12)CCCC3`, the GI50 in the test with KM12 colon was 0.675 µM; with M14 melanoma it was 0.464 µM; in the test on NCI-H460 lung, 2.98 µM; in the test with NCI-H522 lung it was 0.417 µM; with NCI/ADR-RES ovarian, 0.833 µM; with RXF 393 renal it was 2.77 µM. For the same compound, the GI50 is 0.621 µM in the test on SF-295 CNS, 19.2 µM in the test on SK-MEL-28 melanoma, 0.552 µM in the test on SW-620 colon and 0.781 µM in the test with U251 CNS. The TGI in the test with KM12 colon is > 100 µM; with M14 melanoma it was > 100 µM; in the test with NCI-H460 lung it was > 100 µM; in the test on NCI-H522 lung, 4.6 µM; in the test on NCI/ADR-RES ovarian it was > 100 µM; in the test on RXF 393 renal it was > 100 µM. The TGI in the test on SF-295 CNS, in the test on SK-MEL-28 melanoma, in the test on SW-620 colon and with U251 CNS was > 100 µM each time.
Regarding `CCOC(=O)Nc1nc2c(F)c(F)c(F)cc2s1`, the GI50 in the test with KM12 colon is > 100 µM; in the test with M14 melanoma it was > 100 µM; in the test with NCI-H460 lung it was 71.9 µM; with NCI-H522 lung, 36.9 µM; in the test with NCI/ADR-RES ovarian, > 100 µM; in the test on RXF 393 renal it was 29.6 µM. The GI50 in the test on SF-295 CNS is 38.8 µM; in the test on SK-MEL-28 melanoma, > 100 µM; in the test on SW-620 colon, > 100 µM; in the test with U251 CNS, 36.7 µM. Also, the TGI with KM12 colon, with M14 melanoma, in the test on NCI-H460 lung, in the test with NCI-H522 lung, in the test with NCI/ADR-RES ovarian and in the test on RXF 393 renal was > 100 µM throughout. In addition, the TGI in the test with SF-295 CNS, in the test on SK-MEL-28 melanoma, in the test with SW-620 colon and with U251 CNS was > 100 µM in each case.
Consider `COC(=O)c1[nH]nc(-c2ccccc2)c1N1CCCCC1`, for which the GI50 in the test on KM12 colon is 55.8 µM; with M14 melanoma, 57 µM; in the test with NCI-H460 lung, 38.1 µM; with NCI-H522 lung it was 36.8 µM; with NCI/ADR-RES ovarian it was 22.8 µM; in the test with RXF 393 renal it was 20.7 µM. For the same compound, the GI50 in the test on SF-295 CNS was 45.7 µM; with SK-MEL-28 melanoma, 52.1 µM; in the test on SW-620 colon it was 75.6 µM; in the test with U251 CNS, 26.6 µM. The TGI is > 100 µM in the test on KM12 colon; > 100 µM in the test with M14 melanoma; > 100 µM in the test on NCI-H460 lung; > 100 µM in the test with NCI-H522 lung; 58.5 µM in the test with NCI/ADR-RES ovarian; 54.5 µM with RXF 393 renal. Moreover, the TGI was > 100 µM in the test with SF-295 CNS, > 100 µM with SK-MEL-28 melanoma, > 100 µM in the test on SW-620 colon and 78.8 µM with U251 CNS.
`Cn1c2ccccc2c2cc(-c3ccccc3)c3c(c21)C(=O)C=CC3=O`: the TGI with KM12 colon is 42.2 µM; in the test with M14 melanoma it was 47.9 µM; in the test on NCI-H460 lung, 45.5 µM; with NCI-H522 lung, 34.5 µM; in the test with NCI/ADR-RES ovarian it was > 100 µM; in the test with RXF 393 renal it was 31.1 µM. Besides, the TGI in the test on SF-295 CNS is 62.4 µM; in the test on SK-MEL-28 melanoma, 40.2 µM; with SW-620 colon it was 33.4 µM; with U251 CNS, 39.4 µM.
`Cc1cc(N(CCCNc2ccnc3cc(Cl)ccc23)Cc2cccs2)nc(Cl)n1`: the GI50 in the test on KM12 colon was 4.16 µM; in the test on M14 melanoma, 1.81 µM; with NCI-H460 lung it was 4.03 µM; in the test on NCI-H522 lung, 2.9 µM; in the test with NCI/ADR-RES ovarian it was 2.64 µM; in the test on RXF 393 renal, 4.46 µM. In addition, the results for the GI50 in the test on SK-MEL-28 melanoma, with SW-620 colon and in the test with U251 CNS were 4.87 µM, 3.45 µM and 6.75 µM, respectively. Besides, the TGI with KM12 colon turned out to be 17 µM; in the test with M14 melanoma it was 4.54 µM; in the test with NCI-H460 lung it was 18.3 µM; in the test with NCI-H522 lung, 18.7 µM; in the test with NCI/ADR-RES ovarian it was 28.5 µM; in the test on RXF 393 renal, 21.7 µM. Moreover, the results for the TGI in the test on SK-MEL-28 melanoma, in the test on SW-620 colon and with U251 CNS were 19 µM, 18.9 µM and 22.2 µM, respectively.
With `COc1cc(C2c3cc4c(cc3C3OC(=O)C2C3CO)OCO4)cc(OC)c1OC` (configuration not stated), the GI50 is 0.0132 µM in the test with KM12 colon; 0.0333 µM with M14 melanoma; 0.0299 µM in the test on NCI-H460 lung; < 0.01 µM in the test with NCI-H522 lung; 0.0181 µM in the test with NCI/ADR-RES ovarian; < 0.0162 µM in the test on RXF 393 renal. Further, the GI50 was 0.0182 µM with SF-295 CNS, 8.68 µM in the test with SK-MEL-28 melanoma, 0.0244 µM in the test with SW-620 colon and 0.0354 µM in the test with U251 CNS. The TGI was > 100 µM with KM12 colon; > 100 µM in the test with M14 melanoma; > 100 µM in the test with NCI-H460 lung; 0.0351 µM in the test on NCI-H522 lung; 0.0607 µM in the test on NCI/ADR-RES ovarian; 0.166 µM in the test with SF-295 CNS. Besides, the TGI with SK-MEL-28 melanoma, in the test with SW-620 colon and in the test on U251 CNS was > 100 µM in each case.
